Here are results for 24 compounds from patent publication US5196428A, “Imidazo[4,5-b]qinolinyl oxy alkyl ureas” (Bristol-Myers Squibb Company, priority 1992, dated 1993).

Values after ≈ are worked out from the molar mass of the structure shown. Where a name gives a salt, the structure may show the parent alone. Read-outs that look alike come from different tables or passages of the source.

Data set [1] concerns human blood platelets in platelet-rich-plasma (ADP-induced aggregation). Briefly: In vitro inhibition of ADP-induced human platelet aggregation (aggregometer method of Born). It is filed as cell-based. Here is the method: The aggregometer method of Born, G. V. R., J. Physiol., (London), 162, 67-68, (1962) as modified by Mustard, J. F., et al., J. Lab. Clin. Med., 64, 548-599, (1964) was used to assess the in vitro activity of the various compounds as to the inhibition of adenosine diphosphate (ADP) and collagen-induced platelet aggregation. The human volunteer donor's arm is cleansed with 70% ethyl alcohol. A sterile 20 ml syringe and needle are used to withdraw 20 ml of blood. The blood is immediately added to a test tube containing 3.8% sodium citrate to prevent clotting (1 part citrate to 9 parts blood).
Platelet rich plasma (PRP) was separated by centrifugation for 10 minutes at 1000 rpm (140 g) from citrated (3.8%) human blood. All glassware used for preparation of PRP is silicon treated. ADP in final concentration of 0.5 mcg/mL or 0.05 mL of a collagen suspension prepared according to the method described by Evans, G., et al., J. Exp. Med., 128, 877-894, (1968) was used to induce aggregation. The various compounds tested were dissolved in dimethylsulfoxide (DMSO) so that 5 mcl added to the platelet rich plasma would yield the desired test concentration. Vehicle control trials were done and compared with aggregation induced in platelet rich plasma containing various concentrations of the test compounds. Dose response curves were obtained and Inhibitor Concentration (IC50) values calculated.
The target compounds were evaluated as inhibitors of ADP-induced aggregation of human blood platelets in platelet-rich-plasma (PRP) in vitro.

Another data set can be described thus: Aqueous solubility. To be noted: water. Format: physicochemical.
The mark [2] stands for this setting: 0.05 h, ADP 0.5 mcg/mL, human PRP, standard protocol: about 3 minutes incubation prior to agonist, read-out: IC50 vs ADP in human PRP.

The solubility is the concentration that dissolves in the medium under given conditions. Higher therefore signals much dissolved substance. Regarding `CCOC(=O)NCCCOc1ccc2nc3[nH]c(=O)[nH]c3cc2c1` [Cmpd 7a], the IC50 in data set [1] (setting [2]) amounted to 0.035 µg/mL (≈ 0.106 µM). The solubility in the data set “Aqueous solubility” was less than 10000 µg/mL.
`O=C(NCCCOc1ccc2nc3[nH]c(=O)[nH]c3cc2c1)N1CCNCC1` [Cmpd 7n, N-[3-(2.3-dihydro-2-oxo-1H-imidazo4.5-b]quinolin-7yloxy)propyl]-1-piperazinecarboxamide dihydrochloride ethanol solvate]: in data set [1] (setting [2]), the IC50 came to 3.8 µg/mL. In addition, in “Aqueous solubility”, the solubility is less than 500 µg/mL.
`O=C(NCCCOc1ccc2nc3[nH]c(=O)[nH]c3cc2c1)N1CCN(Cc2ccc(Cl)cc2)CC1` [Cmpd 7p, N-[3-(2,3-dihydro-2-oxo-1H-imidazo[4,5-b]quinolin-7yloxy)propyl]-4-(4-chlorophenyl)methyl)-1-piperazine carboxamide dihydrochloride]: the IC50 in data set [1] (setting [2]) stood at 0.17 µg/mL. The compound further displayed a solubility in the data set “Aqueous solubility” of 200 µg/mL.
Turning to `O=C(NCCCOc1ccc2nc3[nH]c(=O)[nH]c3cc2c1)N1CCN(c2ccccn2)CC1` [Cmpd 7w, N-[3-(2,3-dihydro-2-oxo-1H-imidazo[4,5-b]quinolin-7yloxy)propyl]-4-(2-pyridyl)-1-piperazinecarboxamide dihydrochloride ethanol solvate], the IC50 in data set [1] (setting [2]) came out at 0.38 µg/mL. In “Aqueous solubility”, the solubility was 500 µg/mL.
With `Cl.Cl.O=C(NCCCOc1ccc2nc3[nH]c(=O)[nH]c3cc2c1)N1CCN(CC2CCCCC2)CC1` [Cmpd 7f, 4-(Cyclohexylmethyl)-N-[3-(2,3-dihydro-2-oxo-1H-imidazo[4,5-b]quinolin-7yloxy)propyl]-1-piperazinecarboxamide dihydrochloride], the IC50 in data set [1] (setting [2]) was determined as 0.04 µg/mL. In addition, the solubility in the data set “Aqueous solubility” was more than 20000 µg/mL.
The like results for `Cl.Cl.O=C(NCCCOc1ccc2nc3[nH]c(=O)[nH]c3cc2c1)N1CCC(N2CCCCC2)CC1` [Cmpd 7u, N-[3-(2,3-dihydro-2-oxo-1H-imidazo[4,5-b]quinolin-7yloxy)propyl]-4-(1-piperidinyl)-1-piperidinecarboxamide dihydrochloride] were, in that order, 5.2 µg/mL and more than 20000 µg/mL.
For `CC(C)CN1CCN(C(=O)NCCCOc2ccc3nc4[nH]c(=O)[nH]c4cc3c2)CC1.Cl.Cl` [Cmpd 7k, N-[3-(2,3-dihydro-2-oxo-1H-imidazo[4,5-b]quinolin-7yloxy)propyl]-4-(2-methylpropyl]-1-piperazinecarboxamide dihydrochloride], the IC50 in data set [1] (setting [2]) turned out to be 0.09 µg/mL. This compound also had a solubility in “Aqueous solubility” of more than 20000 µg/mL.
Regarding `O=C(NCCCOc1ccc2nc3[nH]c(=O)[nH]c3cc2c1)N1CCN(CC2CCCCCC2)CC1` [Cmpd 7g, 4-(Cycloheptylmethyl)-N-[3-(2.3-dihydro-2-oxo-1H-imidazo[4,5-b]quinolin-7yloxy)propyl]-1piperazinecarboxamide dihydrochloride], the IC50 in data set [1] (setting [2]) is 0.03 µg/mL. In “Aqueous solubility”, the solubility was 2000 µg/mL.
In the same order, the values of `CN(C(=O)NCCCOc1ccc2nc3[nH]c(=O)[nH]c3cc2c1)C1CCCCC1` [Cmpd 7b, N-Cyclohexyl-N'-[3-[(2,3-dihydro-2-oxo-1H-imidazo[4,5-b]quinolin-7-yl)oxy]propyl]-N-methylurea] are 0.04 µg/mL (≈ 0.101 µM) and less than 10000 µg/mL.
For the compound `CCC(CC)CN1CCN(C(=O)NCCCOc2ccc3nc4[nH]c(=O)[nH]c4cc3c2)CC1.Cl.Cl` [Cmpd 7l, N-[3-(2,3-dihydro-2-oxo-1H-imidazo[4,5-b]quinolin-7yloxy)propyl]-4-(2-ethylbutyl)-1-piperazinecarboxamide dihydrochloride], the IC50 in data set [1] (setting [2]) amounted to 0.022 µg/mL. Moreover, the solubility in “Aqueous solubility” is more than 20000 µg/mL.
With `O=C(NCCCOc1ccc2nc3[nH]c(=O)[nH]c3cc2c1)N1CCOCC1` [Cmpd 7d], in data set [1] (setting [2]), the IC50 was 1.2 µg/mL (≈ 3.23 µM). In the data set “Aqueous solubility”, this compound gave a solubility of less than 10000 µg/mL.
`CCCC(CCC)CN1CCN(C(=O)NCCCOc2ccc3nc4[nH]c(=O)[nH]c4cc3c2)CC1.Cl.Cl` [Cmpd 7m, N-[3-(2,3-dihydro-2-oxo-1H-imidazo[4,5-b]quinolin-7yloxy)propyl]-4-(2-propylpentyl]-1-piperazinecarboxamide dihydrochloride]: the IC50 in data set [1] (setting [2]) was determined as 0.07 µg/mL. This compound displayed a solubility in the data set “Aqueous solubility” of 500 µg/mL.
As for `Cl.Cl.O=C(NCCCOc1ccc2nc3[nH]c(=O)[nH]c3cc2c1)N1CCN(CC2CCCC2)CC1` [Cmpd 7h, 4-(Cyclopentylmethyl)-N-[3-(2,3-dihydro-2-oxo-1H-imidazo[4,5-b]quinolin-7yloxy)propyl]-1-piperazinecarboxamide dihydrochloride], the IC50 in data set [1] (setting [2]) was determined as 0.05 µg/mL. In addition, in the data set “Aqueous solubility”, the solubility was determined as 700 µg/mL.
On to `O=C(CCCOc1ccc2nc3[nH]c(=O)[nH]c3cc2c1)N1CCN(CC2CCCCC2)CC1` [formula (3) compound, reference compound], for which the IC50 was found to be 0.041 µg/mL in data set [1] (Homo sapiens, incubation with PRP for about 15 minutes prior to adding ADP, read-out: observed IC50, ADP-induced aggregation) and 0.182 µg/mL in data set [1] (Homo sapiens, read-out: concentration providing 50% inhibition of ADP-induced aggregation, incubation with PRP for about 3 minutes prior to addition of the agonist).
As to `O=C(NCCCOc1ccc2nc3[nH]c(=O)[nH]c3cc2c1)N1CCN(CCc2ccccc2)CC1` [Cmpd 7r, N-[3-(2,3-dihydro-2-oxo-1H-imidazo[4,5-b]quinolin-7yloxy)propyl]-4-[(2-phenylethyl)-1-piperazinecarboxamidedihydrochloride], the IC50 in data set [1] (setting [2]) stood at 0.17 µg/mL. In addition, the solubility in “Aqueous solubility” was 250 µg/mL.
On to `O=C(NCCCOc1ccc2nc3[nH]c(=O)[nH]c3cc2c1)N1CCN(Cc2ccc(F)cc2)CC1` [Cmpd 7q, N-[3-(2,3-dihydro-2-oxo-1H-imidazo[4,5-b]quinolin-7yloxy)propyl]-4-[(4-fluorophenyl)methyl)-1-piperazine carboxamide dihydrochloride ethanol solvate], for which the IC50 in data set [1] (setting [2]) is 0.205 µg/mL. The compound further showed a solubility in the data set “Aqueous solubility” of more than 20000 µg/mL.
In the case of `Cl.Cl.O=C(NCCCOc1ccc2nc3[nH]c(=O)[nH]c3cc2c1)N1CCN(c2ncccn2)CC1` [Cmpd 7v, N-[3-(2,3-dihydro-2-oxo-1H-imidazo[4,5-b]quinolin-7yloxy)propyl]-4-(2-pyrimidinyl)-1-piperazinecarboxamide dihydrochloride], the IC50 in data set [1] (setting [2]) was 0.17 µg/mL. Also, the solubility in “Aqueous solubility” was 100 µg/mL.
For `Cl.O=C(NCCCOc1ccc2nc3[nH]c(=O)[nH]c3cc2c1)N1CCC(Cc2ccccc2)CC1` [Cmpd 7e, N-[3-(2,3-dihydro-2-oxo-1H-imidazo[4,5-b]quinolin-7yloxy)propyl]-4-(phenylmethyl)-1-piperidinecarboxamide hydrochloride], the IC50 in data set [1] (setting [2]) came out at 0.08 µg/mL. In the data set “Aqueous solubility”, the solubility is less than 200 µg/mL.
As to `O=C(NCCCOc1ccc2nc3[nH]c(=O)[nH]c3cc2c1)N1CCN(Cc2cccs2)CC1` [Cmpd 7s, N-[3-(2,3-dihydro-2-oxo-1H-imidazo[4,5-b]quinolin-7yloxy)propyl]-4-[(2-thienyl)methyl)-1-piperazinecarboxamide dihydrochloride ethanol solvate], the IC50 in data set [1] (setting [2]) came out at 0.09 µg/mL. This compound registered a solubility in the data set “Aqueous solubility” of more than 10000 µg/mL.
As for `O=C(NCCCOc1ccc2nc3[nH]c(=O)[nH]c3cc2c1)N1CCN(Cc2ccsc2)CC1` [Cmpd 7t, N-3-(2,3-dihydro-2-oxo-1H-imidazo[4,5-b]quinolin-7yloxy)propyl]-4-[(3-thienyl)methyl)-1-piperazinecarboxamide dihydrochloride], in data set [1] (setting [2]), the IC50 was 0.15 µg/mL. In “Aqueous solubility”, this compound gave a solubility of 3000 µg/mL.
In the case of `Cl.Cl.O=C(NCCCOc1ccc2nc3[nH]c(=O)[nH]c3cc2c1)N1CCN(CCC2CCCCC2)CC1` [Cmpd 7i, 4-(Cyclohexylethyl)-N-[3-(2,3-dihydro-2-oxo-1H-imidazo [4,5-b]quinolin-7yloxy)propyl]-1-piperazinecarboxamide dihydrochloride], in data set [1] (setting [2]), the IC50 is 0.04 µg/mL. This compound also registered a solubility in the data set “Aqueous solubility” of 500 µg/mL.
The like results for `Cl.O=C(NCCCOc1ccc2nc3[nH]c(=O)[nH]c3cc2c1)NC1CCCCC1` [Cmpd 7c, N-Cyclohexyl-N'-[3-[(2,3-dihydro-2-oxo-1H-imidazo[4,5-b]quinolin-7-yl)oxy]propyl]urea hydrochloride] were, in that order, 0.3 µg/mL and less than 10000 µg/mL.
In the case of `O=C(NCCCOc1ccc2nc3[nH]c(=O)[nH]c3cc2c1)N1CCN(Cc2ccccc2)CC1` [Cmpd 7o, N-[3-(2,3-dihydro-2-oxo-1H-imidazo[4,5-b]quinolin-7yloxy)propyl]-4-(phenylmethyl)-1-piperazinecarboxamide dihydrochloride ethanol solvate], the IC50 in data set [1] (setting [2]) was determined as 0.18 µg/mL. In the data set “Aqueous solubility”, this compound gave a solubility of more than 20000 µg/mL.
The like results for `O=C(NCCCOc1ccc2nc3[nH]c(=O)[nH]c3cc2c1)N1CCN(CC2CCCCO2)CC1` (stereo not drawn) [Cmpd 7j, N-[3-(2,3-dihydro-2-oxo-1H-imidazo[4,5-b]quinolin-7yloxy)propyl-4-(tetrahydro-2H-pyran-2-yl)methyl]-1-piperazinecarboxamide dihydrochloride ethanol solvate] were, in that order, 0.09 µg/mL and more than 20000 µg/mL.
